Source: US3953464A, “Cyclic sulphoximides” (Warner-Lambert Company, priority 1973, dated 1976)

Columns and labels:
[1] = LD50 (acute toxicity, i.g.); settings: in vivo, po, species not given
[2] = analgesic activity; assay type: in vivo; settings: dose not given
[3] = antiphlogistic (anti-inflammatory) activity; assay type: in vivo
[4] = test system: Shay Rat; assay: antisecretory activity (Shay Rat); assay type: in vivo; settings: i.g.
[5] = test system: Guinea pig cough; assay: Guinea pig cough (Antitussive); assay type: in vivo; settings: Example 8 250 mg/kg equivalent to 150 mg/kg codeine

| Structure (SMILES) | LD50 [1] [mg/kg] | Activity: Guinea pig cough (Antitussive), equivalent dose [5] [mg/kg] | other results |
| --- | --- | --- | --- |
| CCC(=O)N=C1N=S(=O)(c2ccccc2)c2ccccc21 (stereo not shown) [Example 6, 3-(Propionylimino)-1-phenyl-3H-1,2-benzisothiazole-1-oxide] | 1600 |  | Activity: analgesic (in words) [2]: analgesic; Activity: antiphlogistic / anti-inflammatory (in words) ([3]; dose not given): Antiphlogistic |
| CC(C)C(=O)N=C1N=S(=O)(c2ccccc2)c2ccccc21 (stereo not shown) [Example 7, 3-(Isobutyrylimino)-1-phenyl-3H-1,2-benzisothiazole-1-oxide] | 600 |  | Activity: antisecretory (dose) [4]: 100 mg/kg |
| CS1(=O)=NC(=NC(=O)c2ccccc2O)c2ccccc21 (stereo not shown) [Example 8, 3-(Salicyloylimino)-1-methyl-3H-1,2-benzisothiazole-1-oxide] | 1600 | 250 |  |
| CCOC(=O)N=C1N=S(=O)(c2ccccc2)c2ccccc21 (stereo not shown) [Example 12, 3-(Ethoxycarbonylimino)-1-phenyl-3H-1,2-benzisothiazole-1-oxide] | 1600 |  | Activity: antiphlogistic (dose) ([3]; dose at which antiphlogistic activity is stated, route and species not given): 250 mg/kg |
| COc1ccc2c3c1O[C@H]1[C@@H](O)C=C[C@H]4[C@@H](C2)N(C)CC[C@@]341 [codeine, reference compound] |  | 150 |  |
